≈ marks a conversion by molar mass, not a printed value. Calls of active or inactive are those of the source. The rule behind the calls is not given here.
Experiments:
Format in all cases: functional, organism-based
Influenza A virus [1] = experiment: Antiviral activity against influenza A virus Seoul assessed as inhibition of virus-induced cytopathicity
[2] = system: Human immunodeficiency virus; experiment: Antiviral activity against HIV assessed as inhibition of virus-induced cytopathicity
[3] = system: Encephalomyocarditis virus; experiment: Antiviral activity against EMCV assessed as inhibition of virus-induced cytopathicity; conditions: Cardiovirus A
Human alphaherpesvirus 2 = experiment: Antiviral activity against HSV2 assessed as inhibition of virus-induced cytopathicity
Human alphaherpesvirus 1 = experiment: Antiviral activity against HSV1 assessed as inhibition of virus-induced cytopathicity
Influenza A virus [4] = experiment: Antiviral activity against influenza A virus Taiwan assessed as inhibition of virus-induced cytopathicity
Coxsackievirus B3 = experiment: Antiviral activity against Coxsackievirus B3 assessed as inhibition of virus-induced cytopathicity; conditions: Enterovirus B
[5] = system: Vesicular stomatitis virus; experiment: Antiviral activity against VSV assessed as inhibition of virus-induced cytopathicity
Coronaviridae = experiment: Antiviral activity against Coronavirus assessed as inhibition of virus-induced cytopathicity
Influenza A virus [6] = experiment: Antiviral activity against influenza A virus Panama assessed as inhibition of virus-induced cytopathicity

SMILES	Activity (Influenza A virus [1])	Activity [2]	EC50 [3] [µg/mL]	EC50 (Human alphaherpesvirus 2) [µg/mL]	EC50 (Human alphaherpesvirus 1) [µg/mL]	Activity (Influenza A virus [4])	EC50 (Coxsackievirus B3) [µg/mL]	EC50 [5] [µg/mL]	Activity (Coronaviridae)	Activity (Influenza A virus [6])
CC(=O)OC[C@H]1O[C@@H](n2cc(-c3cc(-c4ccc(C(C)(C)C)cc4)no3)c(=O)[nH]c2=O)C[C@@H]1OC(C)=O	inactive	inactive	0.01 (≈ 0.0195 µM)	0.03 (≈ 0.0586 µM)	> 0.06	inactive	0.01 (≈ 0.0195 µM)	0.03 (≈ 0.0586 µM)	inactive	inactive
CC(=O)OC[C@H]1O[C@@H](n2cc(-c3cc(-c4ccc(C(C)C)cc4)no3)c(=O)[nH]c2=O)C[C@@H]1OC(C)=O	inactive	inactive	0.01 (≈ 0.0201 µM)	0.07 (≈ 0.141 µM)	0.08 (≈ 0.161 µM)	inactive	0.01 (≈ 0.0201 µM)	0.03 (≈ 0.0603 µM)	inactive	inactive
NC(=O)c1ncn([C@@H]2O[C@H](CO)[C@@H](O)[C@H]2O)n1 [RIBAVIRIN]	–	–	0.02 (≈ 0.0819 µM)	–	–	–	–	–	–	–
Nc1ccn([C@@H]2O[C@H](CO)[C@@H](O)[C@@H]2O)c(=O)n1 [CYTARABINE]	–	–	–	0.52 (≈ 2.14 µM)	0.2 (≈ 0.822 µM)	–	–	–	–	–
CC(C)c1ccc(-c2cc(-c3cn([C@H]4C[C@H](O)[C@@H](CO)O4)c(=O)[nH]c3=O)on2)cc1	inactive	inactive	0.02 (≈ 0.0484 µM)	0.09 (≈ 0.218 µM)	0.09 (≈ 0.218 µM)	inactive	0.03 (≈ 0.0726 µM)	> 0.07	inactive	inactive
Nc1nc2c(ncn2COCCO)c(=O)[nH]1 [ACYCLOVIR]	–	–	–	0.36 (≈ 1.6 µM)	0.18 (≈ 0.799 µM)	–	–	–	–	–

Source: ChEMBL document CHEMBL1136856, “Synthesis of 5-isoxazol-5-yl-2'-deoxyuridines exhibiting antiviral activity against HSV and several RNA viruses” (Bioorg Med Chem Lett, 2009)
